Patent US20250002960A1, “COMPOSITIONS AND METHODS FOR NUCLEIC ACID EXTENSION” (Pacific Biosciences of California, Inc., priority 2023, published 2025)
Read-outs that look alike come from different tables or passages of the source.

Key:
[1] = tested on: NO bond at the 3′ position of a polynucleotide; test: Octet/CE cyclic extension assay (SBB extension cycles, extended primer length read by capillary electrophoresis); assay type: biochemical
Source text: The polynucleotides were Cy3-primers hybridized to biotinylated template DNA which were in turn bound to streptavidin coated tips of the Octet system. The Octet system move a set of 8 tips between the wells of a heated 96-well plate, for a set number of SBB extension cycles. Each cycle included an IMG step under conditions at which fluorescent nucleotides of ternary complexes could be imaged, an RTN step in which amineoxy terminated nucleotides were incorporated at the 3′ end of the primer by a polymerase, a wash step that removes excess nucleotides, and a CLV step that exposes the amineoxy terminated extended primer to a deblocking agent or candidate. The length of extended polynucleotides were then detected by capillary electrophoresis (CE), as described in US Patent Pub. No. 2019/0241945, the content of which is incorporated herein.
Polynucleotide sequence was synthesized using the Octet/CE method where non-extendable polynucleotides having a 3′ amineoxy group were used to reversibly stop extension, as shown in the workflow scheme of FIG. 1A.
(§1) CDP was formulated with a number of different buffers at different pH and various different amines as solubility enhancers. 47 formulations were made and tested. In general, CDP was dissolved in water and loaded onto Dowex 50™ cation exchange resin, and incubated for a few minutes. The resin was eluted with an aqueous solution of the amine solubility enhancer. The resulting solution was either used directly in Octet/CE assays or dried form a solid that was very soluble in water.
A number of other carbonyl compounds were test for their ability to cleave the NO bond at the 3′ position of a polynucleotide, according to the assay design shown in FIG. 1A.
Deblocking candidates were tested at various concentrations, generally between 1 and 100 mM (e.g., at 1 mM, 2 mM, 4 mM, 8 mM, 20 mM, 35 mM, 40 mM, 70 mM, and/or 100 mM for different candidates), in acetate (1 M) and tris (0.2 M) buffers, and buffered at pH 6 or 8, with and without amine counterion.

[2] = tested on: library of polynucleotides; test: Sequencing-by-binding run, On/Off signal intensity by cycle; assay type: biochemical; settings: after 150 cycles, CDP versus SOP (sodium NO2)
Procedure: A library of polynucleotides were sequenced in a sequencing-by-binding workflow, and On/Off signal intensity was measured in each sequencing cycle, as described in US Patent Pub. No. 2020/0032317, the content of which is incorporate herein. Specifically, ‘on’ signal intensity (corresponds to the binding of the cognate nucleotide) and ‘off’ signal intensity (corresponds to the binding of the non-cognate nucleotide) in each SBB cycle. By using [NaNO2] 2 M and considering pH 5.2 and based on Henderson-Hasselbalch equation, we calculated that 18 mM of the nitrous acid exists in CLV (Cleave) reagent. Although, this cleave formulation is efficient in converting dNTP-RT to dNTP on the sequencing strand, however, it may have one or more disadvantages, such as instability, corrosivity, and/or DNA damage. Regarding instability: nitrous acid in our current CLV reagent degrades and produces nitrogen oxide gas (NOx) which weaken strength of the deblocking reagent. Nitrous acid is very corrosive and has […] with plastics consumables and instruments.
Y axis is on/off intensities. […] A library of polynucleotides were sequenced in a sequencing-by-binding workflow, and On/Off signal intensity was measured in each sequencing cycle, as described in US Patent Pub. […]

[3] = Solubility of the deblocking agent in the deblocking composition; assay type: physicochemical; settings: in words
Procedure: as §1

[4] = compared to SOP cleave in sodium acetate buffer, in words

Compound | Extension at 40 C. in 37 cycles Octet CE assay [1] | Extension at 52 C. in 37 cycles octet/Ce assay [1] [bp Extension] | cleavage of NO bond (deblocking, extension in multiple cycles) ([1]; in words) | other results
O=Cc1ccc(S(=O)(=O)[O-])cc1S(=O)(=O)[O-].[Na+].[Na+] [Di sodium 4-formylbenzene-1,3-disolfonate] | 3 bp Extension | 3 | deblocking | –
CCC(=O)CP(=O)([O-])[O-].[Na+].[Na+] [Di sodium (2-oxobutyl)phosphonate] | 4 bp Extension | 4 | deblocking | –
CC(=O)P(=O)([O-])[O-].[Na+].[Na+] [Di sodium acetylphosphonate] | 12 bp Extension | 3 | deblocking | –
Hydroxycarbamide [reference compound] | No extension | – | – | –
CC(=O)OP(=O)([O-])[O-].[K+].[Li+] [LiK Aceyl Phosphate, reference compound] | No Extension | – | – | –
O=C(P(=O)(O)O)P(=O)(O)O [CDP, Carbonyl diphosphonate] | 37 bp Extension | – | deblocking | signal to noise ratio [2]: comparable; solubility issue [3]: slight solubility issue; cleavage of NO bond (deblocking, extension in multiple cycles) [1]: comparable to NaNO2; negative phasing ([1]; 37 cycles of extension): 0.21%; positive phasing ([1]; 37 cycles of extension): 0.17%; negative dephasing on electropherogram [1, 4]: higher negative dephasing; positive dephasing on electropherogram [1, 4]: higher positive dephasing; dephasing of product ([1]; compared to SOP, in words): minimal dephasing
O=N[O-].[Na+] [NaNO2, sodium nitrite, reference compound] | – | – | – | negative phasing [1]: 0.04%; positive phasing [1]: 0.05%
CNC(=O)NC [Dimethyl urea, reference compound] | No Extension | – | – | –
CS(=O)(=O)CC(=O)c1ccccc1 [Methyl sulfonyl acetophenone] | 5 bp Extension | 5 | deblocking | –
COP(=O)([O-])C(C)=O.[Na+] [methyl acetylphosphonate, methyl acetylphosphonate CH3—CO—PO(Ome)—O^− Na^+, reference compound] | No Extension | – | – | –
